How the values were obtained:
Normal human fibroblasts [1] = assay: Test for confirming anti-aging effect: amount of senescent cells by SA-β-gal (SPiDER-βGal) staining; type: cell-based; settings: for amount of the senescent cells relative to Control: Control = 100%, Example 1/2/3 = 0.002/0.01/0.05 wt % ingredient, Comparative Example 1 = 0.0023 wt % resveratrol
Experimental: Subsequent to initiation, Normal human fibroblasts (KURABO INDUSTRIES LTD., product No.: KF-4109) were cultured in a basal medium (DMEM (Nacalai Tesque, Inc., product No.: 08456-65)), 10% FBS (BioWest, product No.: S1820, Lot No. 516536), and 1% antibiotic (penicillin-streptomycin mixed solution (Nacalai Tesque, Inc., product No.: 26253-84)) in a CO2 incubator (5% CO2, 37° C.) until a required number of cells were obtained. […] After the resolution, Example and Comparative Example resolved in a basal medium were centrifuged respectively (120,000 rpm (2,000 s^-1), 10 minutes) to remove insoluble materials. After the centrifugal separation, supernatant was collected, filtered and sterilized through a sterilizing filter to be used for each test. Anti-aging effect of Example and Comparative Example was tested by measuring an activity of β-galactosidase (senescence-associated β-galactosidase; SA-β-gal) generally used as a cell aging marker. Normal human fibroblasts prepared with a basal medium was seeded on a 96-well plate so as to be 1×10^4 cells/0.1 ml/well (black plate for fluorescence observation (Sumitomo Bakelite Co., Ltd. product No.: MS-8096F)) and cultured for 24 hours. After the culture, culture supernatants were respectively replaced with the below mediums with different conditions, and normal human fibroblasts were cultured again. The conditions for each medium are as follows. Each cell cultured with mediums with each condition are referred to as Examples 1-3, Comparative Example 1, and Control respectively. Example 1: a basal medium comprising 0.002 wt % of grape seed-derived anti-aging ingredients of the present invention. Example 2: a basal medium comprising 0.01 wt % of grape seed-derived anti-aging ingredients of the present invention. Example 3: a basal medium comprising 0.05 wt % of grape seed-derived anti-aging ingredients of the present invention. Comparative Example 1: a basal medium containing 0.0023 wt % of resveratrol. Control: a basal medium (comprising no grape seed-derived anti-aging ingredients of the present invention nor resveratrol). Normal human fibroblasts were cultured respectively with the conditions for up to 21 days. The mediums were exchanged every 2 to 3 days. After the culture, culture supernatants were removed and the cells were washed twice with PBS (Nissui Pharmaceutical Co., Ltd., product No.: 05913). […] After wash, the basal medium was added to normal human fibroblasts, and nuclei staining (living cells) and stained images of the senescent cells were taken by a fluorescence microscope (Keyence Corporation, product No.: BZ-[…]). The amount of the senescent cells were calculated based on the respective fluorescent images. […]

Normal human fibroblasts [2] = assay: Amount of mitochondria (Mito Tracker Mitochondrion-Selective Probes); type: cell-based; settings: for amount of mitochondria relative to Control: Control = 100%, Example 1/2/3 = 0.002/0.01/0.05 wt % ingredient, Comparative Example 1 = 0.0023 wt % resveratrol
Description: Example 1: a basal medium comprising 0.002 wt % of grape seed-derived anti-aging ingredients of the present invention. Example 2: a basal medium comprising 0.01 wt % of grape seed-derived anti-aging ingredients of the present invention. Example 3: a basal medium comprising 0.05 wt % of grape seed-derived anti-aging ingredients of the present invention. Comparative Example 1: a basal medium containing 0.0023 wt % of resveratrol. Control: a basal medium (comprising no grape seed-derived anti-aging ingredients of the present invention nor resveratrol). The amount of mitochondria was measured using Mito Tracker Mitochondrion-Selective Probes (Invitrogen, product No.: M7512) which can selectively label mitochondria in a cell. After removing culture supernatants of normal human fibroblasts cultured in Example 2, normal human fibroblasts were washed twice with PBS (Nissui Pharmaceutical Co., Ltd., product No.: 05913). To the washed cells were added a basal medium comprising a 1000-fold diluted Hoechist 33342 solution (DOJINDO LABORATORIES, product No.: 346-07951) and a 2000-fold diluted Mito Tracker Mitochondrion-Selective Probes (Invitrogen, product No.: M7512), and normal human fibroblasts were cultured at 37° C. for 30 minutes. After the culture, culture supernatants were removed and normal human fibroblasts were washed twice with PBS (Nissui Pharmaceutical Co., Ltd., product No.: 05913). After wash, PBS (Nissui Pharmaceutical Co., Ltd., product No.: 05913) was newly added to the normal human fibroblasts, and nuclei staining (living cells) and stained images of mitochondria were taken by a fluorescence microscope (Keyence Corporation, product No.: BZ-[…]). Subsequently, each fluorescence intensity was measured using a fluorescent plate reader (Thermo Fisher Scientific, product No.: VARIOSKAN FLASH) (Hoechis: excitation wavelength 356 nm, fluorescence wavelength 465 nm, Mito Tracker: excitation wavelength 579 nm, fluorescence wavelength 599 nm).

Normal human fibroblasts [3] = assay: Workload of a certain amount of mitochondria (MTT assay); type: cell-based; settings: for workload of a certain amount of mitochondria relative to Control: Control = 100%, Example 1/2/3 = 0.002/0.01/0.05 wt % ingredient, Comparative Example 1 = 0.0023 wt % resveratrol
Description: Example 1: a basal medium comprising 0.002 wt % of grape seed-derived anti-aging ingredients of the present invention. Example 2: a basal medium comprising 0.01 wt % of grape seed-derived anti-aging ingredients of the present invention. Example 3: a basal medium comprising 0.05 wt % of grape seed-derived anti-aging ingredients of the present invention. Comparative Example 1: a basal medium containing 0.0023 wt % of resveratrol. Control: a basal medium (comprising no grape seed-derived anti-aging ingredients of the present invention nor resveratrol). The workload of a certain amount of mitochondria was measured by MTT assay. Since the only target of MTT assay is dehydrogenase activity of mitochondria, the result of MTT assay reflects the workload of a certain amount of mitochondria. After measuring the fluorescence intensity, supernatants were removed, and normal human fibroblasts were washed once with PBS (Nissui Pharmaceutical Co., Ltd., product No.: 05913). After the normal human fibroblasts were washed, they were replaced with PBS (100 μl/well) comprising 0.5 mg/ml of MTT (Thiazolyl Blue Tetrazolium Bromide (SIGMA, product No.: […] Subsequently, 100 μl of 0.01M HCl (SIGMA, product No.: 13-1690) and 10% SDS (Wako Pure Chemical Corporation, product No.: 191-07145) were added to each well and reacted at room temperature for 24 hours. After the reaction, formazan of MTT was resolved. After resolving formazan, absorbance was measured using a plate reader (Thermo Fisher Scientific, product No.: VARIOSKAN FLASH) (measurement wavelength 550 nm, reference wavelength 660 nm).

Normal human fibroblasts [4] = assay: Amount of apoptosis cells (FITC-Annexin V staining); type: cell-based; settings: for amount of the apoptosis cells compared to the Control: Control = 100%, Example 1/2/3 = 0.002/0.01/0.05 wt % ingredient, Comparative Example 1 = 0.0023 wt % resveratrol
Description: Example 1: a basal medium comprising 0.002 wt % of grape seed-derived anti-aging ingredients of the present invention. Example 2: a basal medium comprising 0.01 wt % of grape seed-derived anti-aging ingredients of the present invention. Example 3: a basal medium comprising 0.05 wt % of grape seed-derived anti-aging ingredients of the present invention. Comparative Example 1: a basal medium containing 0.0023 wt % of resveratrol. Control: a basal medium (comprising no grape seed-derived anti-aging ingredients of the present invention nor resveratrol). The amount of the apoptosis cells was measured using Annexin V which has been conventionally used as an apoptosis marker. In more detail, the amount of the apoptosis cells was measured by selectively fluorescently-staining the apoptosis cells by fluorescently labeled Annexin V, using its property that Annexin V binds to phosphatidylserine often appearing on a surface of the apoptosis cells. After removing the culture supernatant of a normal human fibroblast cultured in Example 2, the normal human fibroblast was washed twice with PBS (NISSUI PHARMACEUTICAL CO., LTD., product No.: 05913). To the washed normal human fibroblast were added a 1×Binding Buffer containing a 1000-fold diluted Hoechist 33342 solution (DOJINDO LABORATORIES, product No.: 346-079511), a 20-fold diluted FITC-Annexin V, and a 20-fold diluted EthD-III. Then, the normal human fibroblast was cultured at 37° C. for 30 minutes. Then, after removing culture supernatant, the normal human fibroblast was washed twice in the 1×Binding Buffer. New 1×Binding Buffer was added to the normal human fibroblast after the washing, and images of nuclear staining (viable cell), Annexin V staining (apoptosis), and an EthD-III staining (necrosis) were taken by a fluorescence microscope. The amount of apoptosis cells and the amount of necrosis cells were calculated from the fluorescent observation images. Furthermore, FITC-Annexin V, EthD-III and 1×Binding Buffer used in Examples were from Apoptotic/Necrotic/Healthy Cells Detection Kit (Takara Bio, Inc. product No.: D25517).

Normal human fibroblasts [5] = assay: Amount of necrosis cells (EthD-III staining); type: cell-based; settings: for amount of the necrosis cells compared to the Control: Control = 100%, Comparative Example 1 = 0.0023 wt % resveratrol
Description: Example 1: a basal medium comprising 0.002 wt % of grape seed-derived anti-aging ingredients of the present invention. Example 2: a basal medium comprising 0.01 wt % of grape seed-derived anti-aging ingredients of the present invention. Example 3: a basal medium comprising 0.05 wt % of grape seed-derived anti-aging ingredients of the present invention. Comparative Example 1: a basal medium containing 0.0023 wt % of resveratrol. Control: a basal medium (comprising no grape seed-derived anti-aging ingredients of the present invention nor resveratrol). […] The amount of the necrosis cells was measured using an ethidium homodimer III (EthD-III) which has been conventionally used as a necrosis marker. In more detail, EthD-III is a film-impermeable nucleic acid probe and the amount of the necrosis cells was measured by using its property that neither the viable cells nor the apoptosis cells are stained but the necrosis cells are stained in strong red with EthD-III. After removing the culture supernatant of a normal human fibroblast cultured in Example 2, the normal human fibroblast was washed twice with PBS (NISSUI PHARMACEUTICAL CO., LTD., product No.: 05913). To the washed normal human fibroblast were added a 1×Binding Buffer containing a 1000-fold diluted Hoechist 33342 solution (DOJINDO LABORATORIES, product No.: 346-079511), a 20-fold diluted FITC-Annexin V, and a 20-fold diluted EthD-III. Then, the normal human fibroblast was cultured at 37° C. for 30 minutes. Then, after removing culture supernatant, the normal human fibroblast was washed twice in the 1×Binding Buffer. New 1×Binding Buffer was added to the normal human fibroblast after the washing, and images of nuclear staining (viable cell), Annexin V staining (apoptosis), and an EthD-III staining (necrosis) were taken by a fluorescence microscope. The amount of apoptosis cells and the amount of necrosis cells were calculated from the fluorescent observation images. Furthermore, FITC-Annexin V, EthD-III and 1×Binding Buffer used in Examples were from Apoptotic/Necrotic/Healthy Cells Detection Kit (Takara Bio, Inc. product No.: D25517).

[6] = tested on: budding yeast (Saccharomyces cerevisiae); settings: cited from earlier work
male and female mouse = settings: cited from earlier work

## Oc1ccc(/C=C/c2cc(O)cc(O)c2)cc1 [Comparative Example 1, trans-3,4′,5-trihydroxy-stillbene]
Normal human fibroblasts [1]; cells cultured for 7 days
  amount of senescent cells versus Control, in words: more senescent cells among cells cultured for 7 days than Control
Normal human fibroblasts [1]; cultured for 7 days
  amount of the senescent cells relative to Control: 519%
Normal human fibroblasts [1]; cultured for 14 days
  amount of the senescent cells relative to Control: 102%
Normal human fibroblasts [1]; cultured for 21 days
  amount of the senescent cells relative to Control: 64%
Normal human fibroblasts [2]; 7 to 21 days of culture
  effect on the amount of mitochondria, in words: increasing an amount of mitochondria
Normal human fibroblasts [2]; cultured for 7 days
  amount of mitochondria relative to Control: 191%
Normal human fibroblasts [2]; cultured for 14 days
  amount of mitochondria relative to Control: 228%
Normal human fibroblasts [3]; 7 to 21 days of culture
  effect on the workload of a certain amount of mitochondria, in words: decreasing the workload of a certain amount of mitochondria
Normal human fibroblasts [3]; cultured for 7 days
  workload of a certain amount of mitochondria relative to Control: 22%
Normal human fibroblasts [3]; cultured for 14 days
  workload of a certain amount of mitochondria relative to Control: 20%
Normal human fibroblasts [3]; cultured for 21 days
  workload of a certain amount of mitochondria relative to Control: 49%
Normal human fibroblasts [4]; 7 to 21 days of culture
  effect on the amount of the apoptosis cells, in words: increasing the amount of the apoptosis cells
Normal human fibroblasts [4]; cultured for 7 days
  amount of the apoptosis cells compared to the Control: 2184%
Normal human fibroblasts [4]; cultured for 14 days
  amount of the apoptosis cells compared to the Control: 1400%
Normal human fibroblasts [4]; cultured for 21 days
  amount of the apoptosis cells compared to the Control: 4525%
Normal human fibroblasts [5]; 7 to 21 days of culture
  effect on the amount of the necrosis cells, in words: increasing the amount of the necrosis cells in all the periods
Normal human fibroblasts [5]; concentration of resveratrol more than 0.0023 wt %
  necrosis cells at higher concentration, in words: necrosis cells increase too much
Normal human fibroblasts [5]; cultured for 7 days
  amount of the necrosis cells compared to the Control: 125%
Normal human fibroblasts [5]; cultured for 14 days (FIG. 5B), Example 1/2/3 = 0.002/0.01/0.05 wt % ingredient
  amount of the necrosis cells compared to the Control: 801%
Normal human fibroblasts [5]; cultured for 21 days, Example 1/2/3 = 0.002/0.01/0.05 wt % ingredient
  amount of the necrosis cells compared to the Control: 608%
[6]
  extension of the life span of the budding yeast: 70%
Male and female mouse
  effect on life span of mice, in words: does not extend the life span
